According to ChEMBL document CHEMBL5463728, “Data for DCP probe BAY-6096” (2023):

Tests used:
[1] = molecular target: Aldo-keto reductase family 1 member B1 (Rattus norvegicus) (UniProt P07943); assay: Inhibition of Aldose Reductase at compound concentration of 10.0 uM in the Eurofins-Panlabs enzyme assay (Eurofins_assay_107000); parameters: substrate with concentration; settings: Compound concentration 10.0 uM
[2] = molecular target: Adenosine receptor A3 (Homo sapiens) (UniProt P0DMS8); settings: Compound concentration 10.0 uM
Sequence of Adenosine receptor A3 (Homo sapiens) (P0DMS8 whole entry): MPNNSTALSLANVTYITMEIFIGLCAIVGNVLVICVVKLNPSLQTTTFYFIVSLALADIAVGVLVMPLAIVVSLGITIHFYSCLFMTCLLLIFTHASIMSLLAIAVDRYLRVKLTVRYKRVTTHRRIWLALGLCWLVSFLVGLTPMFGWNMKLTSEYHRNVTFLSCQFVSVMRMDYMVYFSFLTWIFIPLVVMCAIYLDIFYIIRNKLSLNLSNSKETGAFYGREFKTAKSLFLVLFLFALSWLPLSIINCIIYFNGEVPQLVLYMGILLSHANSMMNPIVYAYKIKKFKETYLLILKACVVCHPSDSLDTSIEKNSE

[3] = molecular target: Alpha-1B adrenergic receptor (Homo sapiens, UniProt P35368); assay: Adrenoceptor reporter cell assay (ADRA1B); assay type: functional
Sequence of Alpha-1B adrenergic receptor (P35368 whole entry): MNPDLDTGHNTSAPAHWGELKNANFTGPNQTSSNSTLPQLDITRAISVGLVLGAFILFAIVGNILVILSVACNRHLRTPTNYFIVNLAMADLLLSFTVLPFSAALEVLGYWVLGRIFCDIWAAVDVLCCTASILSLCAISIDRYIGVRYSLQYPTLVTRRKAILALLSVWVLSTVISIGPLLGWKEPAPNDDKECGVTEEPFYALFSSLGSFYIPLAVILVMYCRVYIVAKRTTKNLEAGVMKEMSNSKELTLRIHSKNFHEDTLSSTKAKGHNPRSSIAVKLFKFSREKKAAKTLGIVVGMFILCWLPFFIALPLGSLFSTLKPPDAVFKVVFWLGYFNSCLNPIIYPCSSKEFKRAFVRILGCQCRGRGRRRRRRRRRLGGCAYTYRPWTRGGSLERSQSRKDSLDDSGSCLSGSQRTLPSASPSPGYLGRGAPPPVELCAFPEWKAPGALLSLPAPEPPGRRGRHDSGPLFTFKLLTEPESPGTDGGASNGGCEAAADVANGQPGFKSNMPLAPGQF

[4] = molecular target: Type-1 angiotensin II receptor (Homo sapiens) (UniProt P30556); settings: Compound concentration 10.0 uM
Sequence of Type-1 angiotensin II receptor (Homo sapiens) (P30556 whole entry): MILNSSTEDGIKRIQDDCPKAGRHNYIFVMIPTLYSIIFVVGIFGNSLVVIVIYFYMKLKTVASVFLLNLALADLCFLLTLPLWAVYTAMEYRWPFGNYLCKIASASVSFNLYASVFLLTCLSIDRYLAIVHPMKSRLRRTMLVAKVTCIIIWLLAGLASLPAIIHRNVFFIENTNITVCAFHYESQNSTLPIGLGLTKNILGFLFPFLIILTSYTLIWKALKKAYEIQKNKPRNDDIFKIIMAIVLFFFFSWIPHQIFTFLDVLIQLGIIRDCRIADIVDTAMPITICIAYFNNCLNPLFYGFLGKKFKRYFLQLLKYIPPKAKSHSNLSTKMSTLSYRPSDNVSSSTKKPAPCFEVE

[5] = molecular target: T1, Alpha-2B adrenergic receptor (Homo sapiens, UniProt P18089); assay: Adrenoceptor Reporter Cell Assay (ADRA2B); assay type: functional
T1 sequence (P18089 whole entry): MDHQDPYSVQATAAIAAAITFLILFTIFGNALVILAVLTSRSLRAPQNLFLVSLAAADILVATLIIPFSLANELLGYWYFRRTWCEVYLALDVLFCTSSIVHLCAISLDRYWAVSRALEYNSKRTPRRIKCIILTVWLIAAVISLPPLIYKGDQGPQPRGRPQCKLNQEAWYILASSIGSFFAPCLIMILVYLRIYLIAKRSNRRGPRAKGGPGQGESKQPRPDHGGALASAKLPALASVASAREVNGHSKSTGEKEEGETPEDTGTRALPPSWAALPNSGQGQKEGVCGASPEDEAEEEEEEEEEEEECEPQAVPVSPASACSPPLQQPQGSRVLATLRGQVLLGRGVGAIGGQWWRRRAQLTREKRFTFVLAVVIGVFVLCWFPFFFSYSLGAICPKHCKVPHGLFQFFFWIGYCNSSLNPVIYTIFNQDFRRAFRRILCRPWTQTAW

| IC50 [5] | SMILES | inhibition [1] | inhibition [2] | IC50 [3] | inhibition [4] |
| --- | --- | --- | --- | --- | --- |
|  | CNc1cc[n+](CCNC(=O)c2ccn3c(-c4c(C)noc4C)cnc3c2)cc1 | -1.7% | 1.1% | > 10 µM (not active) | 5% |
| 7.1 µM (not active) | Cc1noc(C)c1-c1cnc2cc(C(=O)NCCC[n+]3ccc(N(C)C)cc3)ccn12 |  |  |  |  |
